The results in this text go back to patent publication US9663526B2, “Aminopyrimidinyl compounds” (Pfizer Inc., priority 2014, dated 2017).

Common to all, as to format: biochemical
The target in assay [1] is recombinant human kinase domain of TYK2 (Homo sapiens (Human), UniProt P29597). As to the kind of experiment: JAK Caliper enzyme assay at 1 mM ATP (TYK2).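 Note: microfluidic mobility-shift readout of synthetic peptide phosphorylation by TYK2, tuned to 20–30% conversion at room temperature, reaction stopped with EDTA, DMSO-only wells as uninhibited baseline.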 The note with it: 1 mM ATP; read-out: IC50 (nM) TYK2.
Chain of recombinant human kinase domain of TYK2 (P29597 897-1176): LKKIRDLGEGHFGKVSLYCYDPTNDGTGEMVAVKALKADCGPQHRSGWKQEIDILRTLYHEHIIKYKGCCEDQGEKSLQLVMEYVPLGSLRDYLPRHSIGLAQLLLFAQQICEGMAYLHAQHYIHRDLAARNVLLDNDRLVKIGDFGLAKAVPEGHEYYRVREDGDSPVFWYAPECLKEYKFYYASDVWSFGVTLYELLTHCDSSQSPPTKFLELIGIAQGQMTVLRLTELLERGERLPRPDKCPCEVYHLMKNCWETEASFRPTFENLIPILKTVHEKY
Assay [2] deals with recombinant human kinase domain of JAK3 (Homo sapiens (Human), UniProt P52333). As to the kind of experiment: JAK Caliper enzyme assay at 1 mM ATP (JAK3).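 Note: microfluidic mobility-shift readout of synthetic peptide phosphorylation, percent product converted from peak heights, normalized to DMSO-only wells as uninhibited baseline, room temperature incubation.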
Chain of recombinant human kinase domain of JAK3 (P52333 822-1111): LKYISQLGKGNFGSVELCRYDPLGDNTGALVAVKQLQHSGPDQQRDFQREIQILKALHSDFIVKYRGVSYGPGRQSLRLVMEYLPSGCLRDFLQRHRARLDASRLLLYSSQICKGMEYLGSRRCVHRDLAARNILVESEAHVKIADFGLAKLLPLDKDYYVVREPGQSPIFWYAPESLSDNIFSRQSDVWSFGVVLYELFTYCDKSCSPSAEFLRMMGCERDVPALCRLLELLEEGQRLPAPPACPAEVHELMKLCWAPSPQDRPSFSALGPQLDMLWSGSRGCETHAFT
The target in assay [3] is recombinant human kinase domain of JAK1 (Homo sapiens (Human), UniProt P23458). In words: JAK Caliper enzyme assay at 1 mM ATP (JAK1).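 Note: microfluidic mobility-shift readout of synthetic fluorescent peptide phosphorylation, percent product converted from peak height, inhibition relative to DMSO-only wells as uninhibited baseline, room temperature incubation.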
Chain of recombinant human kinase domain of JAK1 (P23458 875-1153): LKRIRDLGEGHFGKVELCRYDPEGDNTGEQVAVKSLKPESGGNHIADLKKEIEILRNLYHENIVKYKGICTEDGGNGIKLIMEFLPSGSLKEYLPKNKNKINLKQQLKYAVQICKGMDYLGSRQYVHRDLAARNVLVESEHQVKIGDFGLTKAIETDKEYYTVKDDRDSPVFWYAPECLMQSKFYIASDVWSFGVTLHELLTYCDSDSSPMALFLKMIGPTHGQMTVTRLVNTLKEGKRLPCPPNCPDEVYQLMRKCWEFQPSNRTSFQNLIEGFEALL
Assay [4] has as its target recombinant human kinase domain of JAK2 (Homo sapiens (Human), UniProt O60674). As to the kind of experiment: JAK Caliper enzyme assay at 1 mM ATP (JAK2).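 Note: microfluidic mobility-shift read-out of fluorescent synthetic peptide phosphorylation, percent product converted from peak heights, room temperature, DMSO-only wells as uninhibited baseline, inhibition curve fit.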
Setting [5] is: 1 mM ATP, read-out: IC50 (nM) JAK3.
[6] abbreviates: 1 mM ATP, read-out: IC50 (nM) JAK1.

Where two headings read alike, the source gives them in different places.

Chain of recombinant human kinase domain of JAK2 (O60674 849-1124): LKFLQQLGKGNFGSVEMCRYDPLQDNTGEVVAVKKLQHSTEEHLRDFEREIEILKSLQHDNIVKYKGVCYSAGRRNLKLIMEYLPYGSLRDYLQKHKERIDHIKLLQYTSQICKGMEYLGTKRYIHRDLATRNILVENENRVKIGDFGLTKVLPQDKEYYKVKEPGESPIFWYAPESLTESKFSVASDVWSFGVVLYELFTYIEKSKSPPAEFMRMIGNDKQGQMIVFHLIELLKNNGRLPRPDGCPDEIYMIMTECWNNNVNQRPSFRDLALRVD

As to `CNC(=O)c1ncc(Nc2ncc(F)c(N3C[C@@H]4[C@H](C)[C@]4(NC(=O)C4CC4)C3)n2)cc1C` [Example 101, 5-[(4-{(1R,5S,6S)-1-[(cyclopropylcarbonyl)amino]-6-methyl-3-azabicyclo[3.1.0]hex-3-yl}-5-fluoropyrimidin-2-yl)amino]-N,3-dimethylpyridine-2-carboxamide], the IC50 in assay [1] was 663 nM; in assay [2] (setting [5]), greater than 10000 nM; in assay [3] (setting [6]) it was 1880 nM; in assay [4], 2910 nM.

For the compound `Cn1cc(Nc2nccc(N3C[C@H]4CC[C@@H](C3)N4C(N)=O)n2)cn1` [Example 76, (1R,5S)-3-{2-[(1-methyl-1H-pyrazol-4-yl)amino]pyrimidin-4-yl}-3,8-diazabicyclo[3.2.1]octane-8-carboxamide], the half-inhibitory concentration (IC50) was 662 nM in assay [1], greater than 10000 nM in assay [2] (setting [5]), 537 nM in assay [3] (setting [6]) and 1480 nM in assay [4].

Turning to `CCCNC(=O)c1cc(Nc2ncc(F)c(N3C[C@H]4CC[C@@H](C3)N4C(=O)C3CC3)n2)n[nH]1` [Example 2, 3-({4-[(1R,5S)-8-(cyclopropylcarbonyl)-3,8-diazabicyclo[3.2.1]oct-3-yl]-5-fluoropyrimidin-2-yl}amino)-N-propyl-1H-pyrazole-5-carboxamide], the IC50 in assay [1] was 432 nM; in assay [2] (setting [5]), greater than 10000 nM; in assay [3] (setting [6]), 1550 nM; in assay [4], 4720 nM.

For the compound `CCNC(=O)c1ccc(Nc2ncc(F)c(N3CC4CC(C3)N4C(=O)C(C)(F)F)n2)cc1C` [Example 111, 4-({4-[6-(2,2-difluoropropanoyl)-3,6-diazabicyclo[3.1.1]hept-3-yl]-5-fluoropyrimidin-2-yl}amino)-N-ethyl-2-methylbenzamide], the IC50 in assay [1] was determined as 56 nM; in assay [2] (setting [5]) it was 4870 nM; in assay [3] (setting [6]), 1690 nM; in assay [4], 2210 nM.

Take `CNC(=O)c1ncc(Nc2ncc(F)c(N3C[C@H]4[C@@H](C)[C@@]4(NC(=O)C4CC4)C3)n2)cc1C` [Example 100, 5-[(4-{(1S,5R,6R)-1-[(cyclopropylcarbonyl)amino]-6-methyl-3-azabicyclo[3.1.0]hex-3-yl}-5-fluoropyrimidin-2-yl)amino]-N,3-dimethylpyridine-2-carboxamide]: the 50% inhibitory concentration (IC50) in assay [1] is 97 nM; in assay [2] (setting [5]), greater than 10000 nM; in assay [3] (setting [6]), 965 nM; in assay [4] it was 4250 nM.

In the case of `Cn1cc(Nc2nccc(N3C[C@H]4CC[C@@H](C3)N4C[C@H]3C[C@@H]3C#N)n2)cn1` [Example 69, (1S,2S)-2-{[(1R,5S)-3-{2-[(1-methyl-1H-pyrazol-4-yl)amino]pyrimidin-4-yl}-3,8-diazabicyclo[3.2.1]oct-8-yl]methyl}cyclopropanecarbonitrile], the half-maximal inhibitory concentration (IC50) in assay [1] is 811 nM; in assay [2], greater than 10000 nM; in assay [3] (setting [6]) it was 1100 nM; in assay [4], 5700 nM.

As to `Cn1cc(Nc2nccc(N3C[C@H]4CC[C@@H](C3)N4C[C@H]3CC3(F)F)n2)cn1` [Example 63, 4-[(1R,5S)-8-{[(1R)-2,2-difluorocyclopropyl]methyl}-3,8-diazabicyclo[3.2.1]oct-3-yl]-N-(1-methyl-1H-pyrazol-4-yl)pyrimidin-2-amine], the half-maximal inhibitory concentration (IC50) is 125 nM in assay [1], greater than 10000 nM in assay [2] (setting [5]), 303 nM in assay [3] (setting [6]) and 856 nM in assay [4].

In the case of `Cn1cc(Nc2nccc(N3C[C@H]4CC[C@@H](C3)N4C(=O)[C@@H]3C[C@@H]3F)n2)cn1` [Example 43, [(1S,2S)-2-fluorocyclopropyl][(1R,5S)-3-{2-[(1-methyl-1H-pyrazol-4-yl)amino]pyrimidin-4-yl}-3,8-diazabicyclo[3.2.1]oct-8-yl]methanone], the IC50 in assay [1] was 474 nM; in assay [2] (setting [5]), greater than 10000 nM; in assay [3] (setting [6]), 902 nM; in assay [4] it was 2840 nM.

`Cn1cc(Nc2nccc(N3C[C@H]4CC[C@@H](C3)N4C(=O)Nc3ccc(C(F)(F)F)cn3)n2)cn1` [Example 48, (1R,5S)-3-{2-[(1-methyl-1H-pyrazol-4-yl)amino]pyrimidin-4-yl}-N-[5-(trifluoromethyl)pyridin-2-yl]-3,8-diazabicyclo[3.2.1]octane-8-carboxamide]: the IC50 is 964 nM in assay [1], greater than 10000 nM in assay [2] (setting [5]), 300 nM in assay [3] (setting [6]) and 2510 nM in assay [4].

With `C[C@@H]1[C@@H]2CN(c3nc(Nc4ccc([C@@H](C)CO)nc4)ncc3F)C[C@]12NC(=O)C1CC1` (single isomer, unassigned) [Example 103], the half-inhibitory concentration (IC50) in assay [1] is 150 nM; in assay [2] (setting [5]), greater than 10000 nM; in assay [3] (setting [6]), 1740 nM; in assay [4], 3460 nM.

For the compound `Cn1cc(Nc2nccc(N3C[C@H]4CC[C@@H](C3)N4c3ncc(C#N)o3)n2)cn1` [Example 78, 2-[(1R,5S)-3-{2-[(1-methyl-1H-pyrazol-4-yl)amino]pyrimidin-4-yl}-3,8-diazabicyclo[3.2.1]oct-8-yl]-1,3-oxazole-5-carbonitrile], the IC50 is 63 nM in assay [1], greater than 10000 nM in assay [2] (setting [5]), 68 nM in assay [3] (setting [6]) and 461 nM in assay [4].

In the case of `C[C@@H]1[C@@H]2CN(c3nc(Nc4cnc(CO)c(Cl)c4)ncc3F)C[C@]12NC(=O)C1CC1` [Example 105, N-[(1S,5R,6R)-3-(2-{[5-chloro-6-(hydroxymethyl)pyridin-3-yl]amino}-5-fluoropyrimidin-4-yl)-6-methyl-3-azabicyclo[3.1.0]hex-1-yl]cyclopropanecarboxamide], the IC50 in assay [1] is 152 nM; in assay [2] (setting [5]), greater than 10000 nM; in assay [3] (setting [6]), 1570 nM; in assay [4], 6100 nM.

Turning to `Cn1cc(Nc2nccc(N3C[C@H]4CC[C@@H](C3)N4S(C)(=O)=O)n2)cn1` [Example 77, N-(1-methyl-1H-pyrazol-4-yl)-4-[(1R,5S)-8-(methylsulfonyl)-3,8-diazabicyclo[3.2.1]oct-3-yl]pyrimidin-2-amine], the IC50 was 256 nM in assay [1], greater than 10000 nM in assay [2] (setting [5]), 380 nM in assay [3] (setting [6]) and 653 nM in assay [4].

Consider `O=C(C1CC1)N1[C@@H]2CC[C@H]1CN(c1nc(Nc3ccnnc3)ncc1F)C2` [Example 1, cyclopropyl{(1R,5S)-3-[5-fluoro-2-(pyridazin-4-ylamino)pyrimidin-4-yl]-3,8-diazabicyclo[3.2.1]oct-8-yl}methanone], for which the IC50 was 1100 nM in assay [1], greater than 10000 nM in assay [2] (setting [5]), 2730 nM in assay [3] (setting [6]) and greater than 10000 nM in assay [4].

For the compound `Cn1cc(Nc2nccc(N3C[C@H]4CC[C@@H](C3)N4C[C@H]3C[C@@H]3C#N)n2)cn1` [Example 70, (1S,2S)-2-{[(1R,5S)-3-{2-[(1-methyl-1H-pyrazol-4-yl)amino]pyrimidin-4-yl}-3,8-diazabicyclo[3.2.1 l]oct-8-yl]methyl}cyclopropanecarbonitrile], the half-inhibitory concentration (IC50) in assay [1] is 261 nM; in assay [2] (setting [5]) it was greater than 10000 nM; in assay [3] (setting [6]), 259 nM; in assay [4] it was 1540 nM.

With `CNC(=O)c1ncc(Nc2nccc(N3C[C@H]4CC[C@@H](C3)N4C(=O)[C@H]3CC3(F)F)n2)cc1F` [Example 28, 5-({4-[(1R,5S)-8-{[(1R)-2,2-difluorocyclopropyl]carbonyl}-3,8-diazabicyclo[3.2.1]oct-3-yl]pyrimidin-2-yl}amino)-3-fluoro-N-methylpyridine-2-carboxamide], the IC50 in assay [1] is 736 nM; in assay [2] (setting [5]), greater than 10000 nM; in assay [3] it was 1370 nM; in assay [4], 8150 nM.

On to `C[C@@H]1[C@@H]2CN(c3nc(Nc4cnn(C5COC5)c4)ncc3F)C[C@]12NC(=O)[C@@H]1CC1(F)F` [Example 99, (1S)-2,2-difluoro-N-[(1S,5R,6R)-3-(5-fluoro-2-{[1-(oxetan-3-yl)-1H-pyrazol-4-yl]amino}pyrimidin-4-yl)-6-methyl-3-azabicyclo[3.1.0]hex-1-yl]cyclopropanecarboxamide], for which the IC50 in assay [1] turned out to be 26 nM; in assay [2] (setting [5]) it was 4940 nM; in assay [3] (setting [6]), 65 nM; in assay [4], 391 nM.

For the compound `CNC(=O)c1ncc(Nc2nccc(N3C[C@H]4CC[C@@H](C3)N4C[C@@H]3CC3(F)F)n2)cc1C` (single isomer, unassigned) [Example 67], the IC50 in assay [1] was 108 nM; in assay [2] (setting [5]), greater than 10000 nM; in assay [3] (setting [6]) it was 418 nM; in assay [4], 973 nM.

Consider `Cn1cc(Nc2nccc(N3C[C@H]4CC[C@@H](C3)N4C(=O)[C@H]3C[C@H]3C#N)n2)cn1` [Example 38, (1R,2S)-2-{[(1R,5S)-3-{2-[(1-methyl-1H-pyrazol-4-yl)amino]pyrimidin-4-yl}-3,8-diazabicyclo[3.2.1]oct-8-yl]carbonyl}cyclopropanecarbonitrile], for which the IC50 is 427 nM in assay [1], greater than 10000 nM in assay [2] (setting [5]), 707 nM in assay [3] (setting [6]) and 2330 nM in assay [4].

As for `CCNC(=O)c1ccc(Nc2ncc(F)c(N3C[C@H]4CC[C@@H](C3)N4C(=O)OC(C)(C)C)n2)cc1C` [Example 73, tert-butyl 3-(2-{[4-(ethylcarbamoyl)-3-methylphenyl]amino}-5-fluoropyrimidin-4-yl)-3,8-diazabicyclo[3.2.1]octane-8-carboxylate], the half-inhibitory concentration (IC50) in assay [1] amounted to 17 nM; in assay [2] (setting [5]), 1770 nM; in assay [3] (setting [6]), 260 nM; in assay [4], 170 nM.

Regarding `CC(C)NC(=O)N1[C@@H]2CC[C@H]1CN(c1ccnc(Nc3cnn(C)c3)n1)C2` [Example 88, (1R,5S)-3-{2-[(1-methyl-1H-pyrazol-4-yl)amino]pyrimidin-4-yl}-N-(propan-2-yl)-3,8-diazabicyclo[3.2.1]octane-8-carboxamide], the IC50 is 110 nM in assay [1], greater than 10000 nM in assay [2] (setting [5]), 165 nM in assay [3] (setting [6]) and 894 nM in assay [4].

A word on the IC50: it is the midpoint of a concentration-inhibition curve.
